In brackets after ≈: the same amount, converted by molar mass. Counter-ions that a name gives are not always drawn. Like-named read-outs stand apart in the source and are kept apart here.
Assays:
Assay type in all cases: cell-based
[1] = tested on: NDM-1 expressing E. coli strain; test: microbe, parasite or virus in culture; conditions: for MIC: Escherichia coli, antibiotic alone (Table 14), read-out: MIC on NDM-1 over-expression E. coli
[2] = tested on: E. coli (ATCC 25922); test: MIC determination, sensitization fold and FIC index on E. coli; conditions: for MIC: Escherichia coli; for MIC of AB with MD-124: MD-124 concentration 5 μg/ml; for Sensitization: compound up to 25 μM
Method: Bacteria culture and MICs determination: Gram-negative bacteria were cultured in Mueller Hinton II cation-adjusted broth. Gram-positive bacteria were cultured in LB broth. Mycobacterium smegmatis was cultured in Middlebrook 7H9 Broth. MICs of antibiotics itself were determined by performing two-fold serial dilutions of antibiotics. MICs of antibiotics in the presence of bacterial sensitizers were determined by performing two-fold serial dilutions of antibiotics with or without a constant concentration of bacterial sensitizers. The MICs tests were performed on 96-well plates with a final volume of 200 μl Mueller Hinton II cation-adjusted broth in each well. Each well was inoculated with 5×10^5 CFU/ml bacteria and was incubated for 24 h at 37° C. with continuous shaking of 200 rpm. The bacterial density was then determined by OD600. Bacterial growth %=OD600 of antibiotic treatment group/OD600 of antibiotic non-treatment group. MICs was determined as the concentrations that inhibit more than 90% of bacteria growth.
Sensitization fold determination and FIC index calculations: Sensitization fold=MIC of antibiotic only/MIC of antibiotic with bacterial sensitizer. […] Since the MICs were determined by performing two-fold serial dilutions of antibiotic, so the sensitization fold can is the times of 2.
FIC index between compound a and b was calculated according to the formula below: […]
FIC≤0.5: Synergy; FIC between 0.5 and 1: Additive; FIC between 1 and […]: no interaction; FIC >4: antagonism.
Bacteria strains (as indicated in Table 5B) were cultured with rifampicin at various concentrations in the presence or absence of 10 μM of the indicated compound for 20 h at 37° C. The MIC, sensitization, cytotoxicity, and MIC on mycobacteria were tested according to methods described herein. […] The sensitization activities of compounds on MRSA were tested using rifampicin. The sensitization activities of compounds on E. coli were tested using rifampicin.

[3] = tested on: A. baumannii (ATCC 17978); test: MIC, sensitization fold and FIC index on A. baumannii; conditions: A. baumannii towards the antibiotic
[4] = Cytotoxicity on mammalian cells (CCK-8), NIH3T3; conditions: mouse, NIH3T3 cells, 3T3 cell line
Method: (§1) Cytotoxicity test of bacterial sensitizers on mammalian cells. Cell viability was assessed by using Cell Counting Kit-8 (CCK-8, Dojindo, Japan). HEK293 or NIH3T3 cells were seeded in a 96-well plate one day before the experiment to reach 80% confluency. Cells were then incubated with various concentration of bacterial sensitizers at 37° C. with 5% CO2 for 24 h, then 10 μL of CCK-8 solution was added to each well, and the plate was incubated for an additional at 37° C. 2 h with 5% CO2. The optical density at 450 nm was recorded by plate reader; and the results were calculated as a percentage of viability compared with the untreated control.

[5] = tested on: B. subtilis; test: MIC determination and sensitization fold on B. subtilis; conditions: B. subtilis; for Sensitization fold: erythromycin; for MIC: Bacillus subtilis, 24 h, compound alone, read-out: MIC
[6] = tested on: HEK293 cells; test: Cytotoxicity on mammalian cells (CCK-8), HEK293; conditions: HEK293 cell line; 24 h
Method: as §1

[7] = Cytotoxicity on mammalian cells (CCK-8), HEK293; conditions: human, HEK293 cells; HEK293 cell line; 24 h
Method: as §1

[8] = Cytotoxicity in H9c2 cells (CCK-8); conditions: rat, H9c2 cells; H9c2 cell line
Method: The cytotoxicity in H9c2 (ATCC®CRL-1446™) cells was also determined. The H9c2 cells were maintained in DMEM (Dulbecco's Modified Eagle's Medium) supplemented with 10% fetal bovine serum (MidSci; S01520HI) and 1% penicillin-streptomycin (Sigma-Aldrich; P4333) at 37° C. with 5% CO2. The H9c2 cells were seeded in 96-well plate one day before the experiment. Different concentrations of di-amidine compounds were added into the H9c2 cells. The cells were then incubated with the compounds for 24 hours at 37° C. with 5% CO2. The cell viability was tested by the CCK-8. Specifically, after 24 hour incubation, 10 μL CCK-8 was added to each well. After 3 hours incubation at 37° C., the absorbance at 450 nm was recorded by a plate reader.

[9] = ATCC25922, antibiotic alone (Table 14), read-out: MIC on wild-type E.coli
[10] = E. coli towards the antibiotic, MD-124 5 μg/ml
[11] = ATCC25922, 24 h, E. coli (wild type), antibiotic alone, read-out: MIC of AB only
[12] = ATCC25922, 24 h, E. coli, compound alone, read-out: MIC

Compound: CC(C)(O/N=C(\C(=O)N[C@@H]1C(=O)N2C(C(=O)[O-])=C(C[n+]3ccccc3)CS[C@H]12)c1csc(N)n1)C(=O)O [Ceftazidime, reference compound]
- MIC [1]: > 6.25 µg/mL
- MIC [2, 9]: < 0.2 µg/mL

Compound: O=C(O)c1cn(C2CC2)c2cc(N3CCNCC3)c(F)cc2c1=O [Ciprofloxacin, reference compound]
- Sensitization fold [2, 10]: 4 fold
- MIC of AB with MD-124 ([2]; E. coli): 0.0125 µg/mL
- MIC [2, 11]: 0.05 µg/mL
- Sensitization fold with 5 μg/ml MD-124 [3]: 4 fold

Compound: NC[C@H]1O[C@H](O[C@H]2[C@H](O)[C@@H](O[C@H]3O[C@H](CO)[C@@H](O)[C@H](N)[C@H]3O)[C@H](N)C[C@@H]2N)[C@H](O)[C@@H](O)[C@@H]1O [Kanamycin]
- Sensitization fold with 5 μg/ml MD-124 [3]: 2 fold

Compound: COc1cc(C(=N)N)ccc1OCc1cc(COc2ccc(C(=N)N)cc2OC)cc(C(C)(C)C)c1 [MD-114, 1,3-Bis {[4-amidino-2-methoxy)-phenoxymethyl]}-5-(tert-butyl)benzene dihydrochloride]
- CC50 at 24 h [4]: 50 µM
- Sensitization fold ([5]; compound at 12 μM): 8-fold at 12 μM
- MIC [5]: 25 µM
- Sensitization fold ([2]; E. coli, rifampicin, compound at 12.5 μM): 8-fold at 12.5 μM
- MIC [2, 12]: 100 µM
- CC50 [6]: 100 µM

Compound: Cc1cc(CSc2ccc(C3=NCCN3)cc2)cc(CSc2ccc(C3=NCCN3)cc2)c1 [MD-118, 1,3-Bis {(4-(2-imidazolino))-thiophenoxymethyl}-5-methylbenzene dihydrochloride]
- CC50 at 24 h [4]: 12.5 µM
- Sensitization fold ([5]; compound at 3 μM): 4-fold at 3 μM
- Sensitization fold ([5]; compound at 6 μM): 16-fold at 6 μM,
- MIC [5]: > 25 µM
- Sensitization ([2]; E. coli, rifampicin): No effect up to 25 μM.
- MIC [2, 12]: > 50 µM
- CC50 at 24 h [7]: 25 µM

Compound: Cc1cc(COc2ccc(C3=NCCN3)cc2)cc(COc2ccc(C3=NCCN3)cc2)c1 [MD-129, 1,3-Bis {(4-(2-imidazolino))-phenoxymethyl}-5-methylbenzene dihydrochloride]
- CC50 at 24 h [4]: 25 µM
- Sensitization fold ([5]; compound at 12 μM): 4-fold at 12 μM
- MIC [5]: > 50 µM
- Sensitization fold ([2]; 10 μM compound, rifampicin as the antibiotic (Table 6)): 1 fold
- Sensitization ([2]; E. coli, rifampicin): No effect up to 25 μM
- MIC [2, 12]: > 50 µM
- sensitization activity ([2]; rifampicin, compound at up to 10 μM): no sensitization activity
- CC50 at 24 h [7]: 50 µM
- CC50 at 24 h [8]: 25 µM

Compound: C[C@@H](O)[C@H]1C(=O)N2C(C(=O)O)=C(S[C@@H]3CN[C@H](C(=O)N(C)C)C3)[C@H](C)[C@H]12 [Meropenem, reference compound]
- MIC [1]: 12.5 µg/mL (≈ 32.6 µM)
- Sensitization fold with 5 μg/ml MD-124 ([1]; NDM-1 expressing E. coli towards the antibiotic): 2 fold
- Sensitization fold [2, 10]: 1 fold
- MIC of AB with MD-124 ([2]; E. coli): 0.063 µg/mL
- MIC [2, 11]: 0.063 µg/mL
- MIC [2, 9]: 0.03 µg/mL

Compound: CCOc1ccc2ccccc2c1C(=O)N[C@@H]1C(=O)N2[C@@H]1SC(C)(C)[C@@H]2C(=O)O [Nafcillin, reference compound]
- Sensitization fold [2, 10]: >4 fold
- MIC of AB with MD-124 ([2]; E. coli): 75 µg/mL
- MIC [2, 11]: > 300 µg/mL
- Sensitization fold with 5 μg/ml MD-124 [3]: 2 fold

Compound: CN(C)[C@@H]1C(O)=C(C(N)=O)C(=O)[C@@]2(O)C(O)=C3C(=O)c4c(O)cccc4[C@@](C)(O)[C@H]3C[C@@H]12 [Tetracycline, reference compound]
- Sensitization fold with 5 μg/ml MD-124 [1]: 4 fold
- Sensitization fold [2, 10]: 2 fold
- MIC of AB with MD-124 ([2]; E. coli): 0.6 µg/mL
- MIC [2, 11]: 1.2 µg/mL
- Sensitization fold with 5 μg/ml MD-124 [3]: 2 fold

Compound: COc1cc(Cc2cnc(N)nc2N)cc(OC)c1OC [Trimethoprim, reference compound]
- Sensitization fold [2, 10]: 2 fold
- MIC of AB with MD-124 ([2]; E. coli): 1.25 µg/mL
- MIC [2, 11]: 2.5 µg/mL
- Sensitization fold with 5 μg/ml MD-124 [3]: 2 fold

— patent US20230105108A1, “COMPOUNDS FOR THE TREATMENT OF BACTERIAL INFECTIONS AND POTENTIATION OF ANTIBIOTICS” (GEORGIA STATE UNIVERSITY RESEARCH FOUNDATION, INC., priority 2019, published 2023)
